Reference: ChEMBL document CHEMBL1153880, “Synthesis and adrenolytic activity of 1-(1H-indol-4-yloxy)-3-{[2-(2-methoxyphenoxy)ethyl]amino}propan-2-ol and its enantiomers. Part 1” (Eur J Med Chem, 2009)
Calls of active or inactive are those of the source. No cut-off for these calls is given here.

Columns and labels:
[1] = molecular target: T1, Adrenergic receptor alpha-2 (Rattus norvegicus, UniProt P22086+P19328+P22909); assay: Displacement of [3H]clonidine from alpha2 adrenergic receptor in rat cerebral cortex by liquid scintillation method; format: tissue-based
T1 sequence (P22086 whole entry): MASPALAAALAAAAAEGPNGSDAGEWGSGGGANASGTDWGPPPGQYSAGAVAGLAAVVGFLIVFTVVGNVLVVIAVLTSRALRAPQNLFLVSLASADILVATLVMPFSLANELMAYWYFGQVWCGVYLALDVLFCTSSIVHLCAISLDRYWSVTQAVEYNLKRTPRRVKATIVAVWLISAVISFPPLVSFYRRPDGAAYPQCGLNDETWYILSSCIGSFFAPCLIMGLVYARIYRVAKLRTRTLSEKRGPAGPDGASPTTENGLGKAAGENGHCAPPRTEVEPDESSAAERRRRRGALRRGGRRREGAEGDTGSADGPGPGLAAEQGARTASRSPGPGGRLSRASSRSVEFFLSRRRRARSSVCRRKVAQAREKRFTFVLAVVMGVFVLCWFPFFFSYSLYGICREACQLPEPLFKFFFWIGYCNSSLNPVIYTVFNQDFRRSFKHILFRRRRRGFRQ
T1 sequence (P19328 whole entry): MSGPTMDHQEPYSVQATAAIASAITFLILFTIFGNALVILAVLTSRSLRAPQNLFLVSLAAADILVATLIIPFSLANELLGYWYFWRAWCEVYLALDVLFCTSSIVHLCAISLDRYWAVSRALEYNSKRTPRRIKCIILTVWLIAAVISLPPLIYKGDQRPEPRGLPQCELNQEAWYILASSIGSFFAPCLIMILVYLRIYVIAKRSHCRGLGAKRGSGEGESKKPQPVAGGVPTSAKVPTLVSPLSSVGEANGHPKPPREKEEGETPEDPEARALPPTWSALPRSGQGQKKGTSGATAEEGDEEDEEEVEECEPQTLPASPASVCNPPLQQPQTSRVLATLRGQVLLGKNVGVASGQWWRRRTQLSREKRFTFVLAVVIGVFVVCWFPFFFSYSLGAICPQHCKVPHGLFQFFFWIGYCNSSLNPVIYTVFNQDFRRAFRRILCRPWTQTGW
T1 sequence (P22909 whole entry): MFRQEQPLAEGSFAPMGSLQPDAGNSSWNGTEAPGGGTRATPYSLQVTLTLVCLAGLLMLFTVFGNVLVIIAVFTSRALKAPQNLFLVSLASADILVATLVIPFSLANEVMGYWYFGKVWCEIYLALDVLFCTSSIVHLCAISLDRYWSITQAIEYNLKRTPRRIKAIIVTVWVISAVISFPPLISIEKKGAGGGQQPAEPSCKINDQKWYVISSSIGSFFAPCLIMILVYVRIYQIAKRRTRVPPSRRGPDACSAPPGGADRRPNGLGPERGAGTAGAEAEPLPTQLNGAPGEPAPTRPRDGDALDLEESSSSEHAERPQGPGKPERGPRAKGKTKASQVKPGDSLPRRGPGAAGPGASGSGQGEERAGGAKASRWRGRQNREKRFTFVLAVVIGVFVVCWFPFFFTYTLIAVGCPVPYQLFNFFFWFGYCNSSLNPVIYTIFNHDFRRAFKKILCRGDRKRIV

Rattus norvegicus [2] = assay: Effect on heart rate in anaesthetized Wistar rat assessed as number of beats per minute at 1 mg/kg, iv after 1 min by electrocardiography; format: functional
Rattus norvegicus [3] = assay: Effect on heart rate in anaesthetized Wistar rat assessed as number of beats per minute at 1 mg/kg, iv after 5 mins by electrocardiography; format: functional
Rattus norvegicus [4] = assay: Effect on electrocardiogram in anaesthetized Wistar rat assessed as change in QRS interval at 1 mg/kg, iv after 5 mins by electrocardiography; format: functional
Rattus norvegicus [5] = assay: Hypotensive activity in anaesthetized normotensive Wistar rat assessed as reduction in methoxamine-induced pressor response at 1 mg/kg, iv after 5 mins; format: functional, organism-based; parameters: dose 1 mg/kg
Rattus norvegicus [6] = assay: Effect on electrocardiogram in anaesthetized Wistar rat assessed as change in Q-T interval at 1 mg/kg, iv after 1 min by electrocardiography; format: functional
Rattus norvegicus [7] = assay: Effect on electrocardiogram in anaesthetized Wistar rat assessed as change in P-Q-interval at 1 mg/kg, iv after 5 mins by electrocardiography; format: functional
Rattus norvegicus [8] = assay: Effect on electrocardiogram in anaesthetized Wistar rat assessed as change in QRS interval at 1 mg/kg, iv after 15 mins by electrocardiography; format: functional
[9] = Acute toxicity in iv dosed anaesthetized Wistar rat; format: organism-based; settings: in vivo
Rattus norvegicus [10] = assay: Antiarrhythmic activity against adrenaline-induced arrhythmia in iv dosed anaesthetized Wistar rat assessed as inhibition of premature ventricular beats pretreated 60 mins prior to adrenaline challenge; format: functional; settings: Heart
Rattus norvegicus [11] = assay: Effect on electrocardiogram in anaesthetized Wistar rat assessed as change in P-Q interval at 1 mg/kg, iv after 1 min by electrocardiography; format: functional

| SMILES | Ki [1] | Activity (Rattus norvegicus [2]) | Activity (Rattus norvegicus [3]) | Activity (Rattus norvegicus [4]) | Activity (Rattus norvegicus [5]) | Activity (Rattus norvegicus [6]) | Activity (Rattus norvegicus [7]) | Activity (Rattus norvegicus [8]) | LD50 [9] | ED50 (Rattus norvegicus [10]) | Activity (Rattus norvegicus [11]) |
| --- | --- | --- | --- | --- | --- | --- | --- | --- | --- | --- | --- |
| COc1ccccc1OCCNC[C@@H](O)COc1cccc2[nH]ccc12 | 467.3 nM | 307.8 min⁻¹ | 310.2 min⁻¹ | 21.7 ms | Active | 63 ms | 50.7 ms | 21.7 ms | 20.4 mg/kg | 0.43 mg/kg | 53.7 ms |
| COc1ccccc1OCCNCC(O)COc1cccc2[nH]ccc12 (racemic) | 1.4 nM | 298.7 min⁻¹ | 294.5 min⁻¹ | 24.9 ms | Active | 69.2 ms | 48.1 ms | 26.9 ms | 20 mg/kg | 0.34 mg/kg | 47.2 ms |
| COc1ccccc1OCCNC[C@H](O)COc1cccc2[nH]ccc12 | 365.5 nM | 297.2 min⁻¹ | 291.3 min⁻¹ | 24.3 ms | Active | 72.3 ms | 49.7 ms | 22.7 ms | 36.2 mg/kg | 0.059 mg/kg | 52.3 ms |
